Experimental data: US12331026B2 (NiKang Therapeutics, Inc., priority 2022, dated 2025)

Target: T1, CDK2 (Homo sapiens, UniProt P24941)
T1 construct: endogenous in cells; host or cells: OVCAR3 cells
Experiment: Phospho-RB measurement in OVCAR3 cells (HTRF phospho-RB S807/811)
Type: cell-based
Details: phosphorylation of RB protein at S807/811, HTRF, 24 h compound treatment, 0.3 to 10,000 nM, read-out: pRb (uM)
Description: The ability of compounds of Formula (I) to inhibit CDK2 was determined in OVCAR3 cells. Phosphorylation of RB protein at S807/811 were measured using HTRF phospho-RB cellular kits (Cat #64RBS807PEG) from Cisbio.
On Day 1, OVCAR3 cells were seeded into 96-well tissue-culture treated plates at 20,000 cells/well in 200 μL and incubated overnight at 37° C. in CO2 atmosphere. On Day 2, the cells were treated with test compounds at concentrations from 0.3 to 10,000 nM using HP D300 digital dispenser. Twenty-four hours after compound treatment, cell culture media was removed by flicking the plate and tapping the plate against clean paper towel. Immediately 30 μL 1× lysis buffer was supplemented from the kit and the plate was incubated at room temperature on shaker for 30 min. After homogenization by pipetting up and down, 8 μL cell lysate from 96-well cell culture plate was transferred to 384-well small volume white detection plate. 2 μL premixed detection solution was added and the plate was covered with sealer. To prepare the detection solution, d2 conjugated-phospho-RB antibody and Eu-cryptate conjugated phosphor-RB antibody were diluted into detection buffer following manufacturer's instruction.
Detection plates were incubated for 4 h at room temperature and read on ClarioStar (BMG Labtech) in TR-FRET mode ([…]). The TR-FRET ratio (665 nM1/620 nM) was plotted against the compound concentration and normalized to DMSO controls. Half maximal inhibition concentration (IC50) values are calculated with a four-parameter logistic fit using GraphPad Prism (version 8; La Jolla, CA).

| Structure (SMILES) | IC50 [µM] |
| --- | --- |
| O=S1(=O)C[C@@H]2[C@H](C1)[C@@H]2Nc1nccc(-c2sc(N3C4CCC3CN(C3CC(F)(F)C3)C4)nc2-c2cccc(NS(=O)(=O)c3c(F)cccc3F)c2F)n1 [Example 94, N-(3-(2-(3-(3,3-difluorocyclobutyl)-3,8-diazabicyclo[3.2.1]octan-8-yl)-5-(2-(((1R,5S,6s)-3,3-dioxido-3-thiabicyclo[3.1.0]hexan-6-yl)amino)pyrimidin-4-yl)thiazol-4-yl)-2-fluorophenyl)-2,6-difluorobenzenesulfonamide] | 0.28 |
| COc1cccc(F)c1S(=O)(=O)Nc1cccc(-c2nc(N3C4CCC3CN(C)C4)sc2-c2ccnc(NC3CC4(C3)CS(=O)(=O)C4)n2)c1F [Example 57, N-(3-(5-(2-((2,2-dioxido-2-thiaspiro[3.3]heptan-6-yl)amino)-pyrimidin-4-yl)-2-(3-methyl-3,8-diazabicyclo[3.2.1]octan-8-yl)thiazol-4-yl)-2-fluorophenyl)-2-fluoro-6-methoxybenzenesulfonamide] | 0.6 |
| CS(=O)(=O)C1CCC(Nc2nccc(-c3sc(C45CC(Cl)(C4)C5)nc3-c3cccc(NS(=O)(=O)c4c(F)cccc4C(F)(F)F)c3F)n2)CC1 (centres unmarked) [Example 8, N-(3-(2-(3-chlorobicyclo[1.1.1]pentan-1-yl)-5-(2-(((1s,4s)-4-(methylsulfonyl)cyclohexyl)amino)pyrimidin-4-yl)thiazol-4-yl)-2-fluorophenyl)-2-fluoro-6-(trifluoromethyl)benzenesulfonamide] | 0.24 |
| CN1C2CCC1CN(c1nc(-c3cccc(NS(=O)(=O)c4c(F)cccc4F)c3F)c(-c3ccnc(NC4CC5(C4)CS(=O)(=O)C5)n3)s1)C2 [Example 23, N-(3-(5-(2-((2,2-dioxido-2-thiaspiro[3.3]heptan-6-yl)amino)pyrimidin-4-yl)-2-(8-methyl-3,8-diazabicyclo[3.2.1]octan-3-yl)thiazol-4-yl)-2-fluorophenyl)-2,6-difluorobenzenesulfonamide] | 1.74 |
| COc1cccc(C(F)(F)F)c1S(=O)(=O)Nc1cccc(-c2nc(N3C4CCC3CN(C)C4)sc2-c2ccnc(NC3CC4(C3)CS(=O)(=O)C4)n2)c1F [Example 74, N-(3-(5-(2-((2,2-dioxido-2-thiaspiro[3.3]heptan-6-yl)amino)-pyrimidin-4-yl)-2-(3-methyl-3,8-diazabicyclo[3.2.1]octan-8-yl)thiazol-4-yl)-2-fluorophenyl)-2-methoxy-6-(trifluoromethyl)benzenesulfonamide] | 0.63 |
| C[C@H]1CN(C)C[C@H](C)N1c1nc(-c2cccc(NS(=O)(=O)c3c(F)cccc3C(F)(F)F)c2F)c(-c2ccnc(NC3CC4(C3)CS(=O)(=O)C4)n2)s1 [Example 70, N-(3-(5-(2-((2,2-dioxido-2-thiaspiro[3.3]heptan-6-yl)amino)-pyrimidin-4-yl)-2-((2S,6S)-2,4,6-trimethylpiperazin-1-yl)thiazol-4-yl)-2-fluorophenyl)-2-fluoro-6-(trifluoromethyl)benzenesulfonamide] | 0.03 |
| O=S1(=O)CC2CCC(C1)N2c1nc(-c2cccc(NS(=O)(=O)c3c(F)cccc3F)c2F)c(-c2ccnc(NC3CC4(C3)CS(=O)(=O)C4)n2)s1 [Example 48, N-(3-(5-(2-((2,2-dioxido-2-thiaspiro[3.3]heptan-6-yl)amino)-pyrimidin-4-yl)-2-(3,3-dioxido-3-thia-8-azabicyclo[3.2.1]octan-8-yl)thiazol-4-yl)-2-fluorophenyl)-2,6-difluorobenzenesulfonamide] | 7.13 |
| CN1CC2CCC(C1)N2c1nc(-c2cccc(NS(=O)(=O)c3c(F)cccc3C(F)(F)F)c2F)c(-c2ccnc(NC3CC4(C3)CS(=O)(=O)C4)n2)s1 [Example 51, N-(3-(5-(2-((2,2-dioxido-2-thiaspiro[3.3]heptan-6-yl)amino)-pyrimidin-4-yl)-2-(3-methyl-3,8-diazabicyclo[3.2.1]octan-8-yl)thiazol-4-yl)-2-fluorophenyl)-2-fluoro-6-(trifluoromethyl)-benzenesulfonamide] | 0.04 |
| CS(=O)(=O)[C@H]1CC[C@H](Nc2nccc(-c3sc(C45CC(C(F)(F)F)(C4)C5)nc3-c3cccc(NS(=O)(=O)c4c(F)cccc4C(F)(F)F)c3F)n2)CC1 [Example 35, 2-fluoro-N-(2-fluoro-3-(5-(2-(((1r,4r)-4-(methylsulfonyl)-cyclohexyl)amino)pyrimidin-4-yl)-2-(3-(trifluoromethyl)-bicyclo[1.1.1]pentan-1-yl)thiazol-4-yl)phenyl)-6-(trifluoromethyl)-benzenesulfonamide] | 0.29 |

The remaining lines, values ahead:

| IC50 [µM] | Structure (SMILES) |
| --- | --- |
| 0.73 | CS(=O)(=O)C1CCC(Nc2nccc(-c3sc(C45CC(C(F)(F)F)(C4)C5)nc3-c3cccc(NS(=O)(=O)c4c(Cl)cccc4C(F)(F)F)c3F)n2)CC1 (centres unmarked) [Example 118, 2-chloro-N-(2-fluoro-3-(5-(2-(((1s,4s)-4-(methylsulfonyl)-cyclohexyl)amino)pyrimidin-4-yl)-2-(3-(trifluoromethyl)bicyclo-[1.1.1]pentan-1-yl)thiazol-4-yl)phenyl)-6-(trifluoromethyl)-benzenesulfonamide] |
| 0.05 | CC1(C)CCN1c1nc(-c2cccc(NS(=O)(=O)c3c(F)cccc3C(F)(F)F)c2F)c(-c2ccnc(N[C@H]3[C@@H]4CS(=O)(=O)C[C@@H]43)n2)s1 [Example 121, N-(3-(2-(2,2-dimethylazetidin-1-yl)-5-(2-(((1R,5S,6r)-3,3-dioxido-3-thiabicyclo[3.1.0]hexan-6-yl)amino)pyrimidin-4-yl)thiazol-4-yl)-2-fluorophenyl)-2-fluoro-6-(trifluoromethyl)benzenesulfonamide] |
| 0.17 | O=S1(=O)C[C@@H]2[C@H](C1)[C@H]2Nc1nccc(-c2sc(N3C4CCC3CN(C3CC(F)(F)C3)C4)nc2-c2cccc(NS(=O)(=O)c3c(F)cccc3OC(F)F)c2F)n1 [Example 123, N-(3-(2-(3-(3,3-difluorocyclobutyl)-3,8-diazabicyclo[3.2.1]octan-8-yl)-5-(2-(((1R,5S,6r)-3,3-dioxido-3-thiabicyclo[3.1.0]hexan-6-yl)amino)pyrimidin-4-yl)thiazol-4-yl)-2-fluorophenyl)-2-(difluoromethoxy)-6-fluorobenzenesulfonamide] |
| 0.09 | O=S1(=O)CC2(CC(Nc3nccc(-c4sc(N5C6CCC5CN(C5CC(F)(F)C5)C6)nc4-c4cccc(NS(=O)(=O)c5c(F)cccc5C(F)(F)F)c4F)n3)C2)C1 [Example 149, N-(3-(2-(3-(3,3-difluorocyclobutyl)-3,8-diazabicyclo[3.2.1]octan-8-yl)-5-(2-((2,2-dioxido-2-thiaspiro[3.3]heptan-6-yl)amino)pyrimidin-4-yl)thiazol-4-yl)-2-fluorophenyl)-2-fluoro-6-(trifluoromethyl)benzenesulfonamide] |
| 0.051 | CC1(C#N)CC2CCC(C1)N2c1nc(-c2cccc(NS(=O)(=O)c3c(F)cccc3C(F)(F)F)c2F)c(-c2ccnc(NC3CC4(C3)CS(=O)(=O)C4)n2)s1 (centres unmarked) [Example 151, N-(3-(2-(3-cyano-3-methyl-8-azabicyclo[3.2.1]octan-8-yl)-5-(2-((2,2-dioxido-2-thiaspiro[3.3]heptan-6-yl)amino)pyrimidin-4-yl)thiazol-4-yl)-2-fluorophenyl)-2-fluoro-6-(trifluoromethyl)benzenesulfonamide] |
